Among the data in patent US20250346600A1, “TRICYCLIC DERIVATIVES AND RELATED USES” (MOMA Therapeutics, Inc., priority 2023, published 2025) are AC50 values, retold here.

For orientation: AC50 means the midpoint of the concentration-response curve, whichever way the signal moves.

Experiment [1] addresses Full length WRN protein (aa 2-1432) (Homo sapiens (Human), UniProt Q14191). The experiment is described as follows: WRN ATPase ADP-Glo biochemical assay, Assay Format A (10 μM ATP). The settings on record: 0.25 nM WRN, 100 nM C6.18 ssDNA, 30 min preincubation, read-out: ATPase ADPGlo AC50 (uM)- Assay Format A. From the text:
Full length Werner helicase construct (Uniprot: Q14191) with an N-terminal FLAG-AVI-TEV tag was expressed using the Sf9 cell/baculovirus expression system. The harvested cell pellet was resuspended and lysed in a glass homogenizer. After insoluble material was removed by centrifugation, the helicase protein was first purified with FLAG affinity resin and then further purified through a size-exclusion chromatography column. Peak fractions containing the purified protein were concentrated, split into aliquots and frozen in liquid nitrogen to be thawed before use. Biochemical Assay Description (ATPase activity)-Assay Format A WRN activity was measured using an ATPase assay. Full length WRN protein (aa 2-1432) (production described separately) was used for the biochemical activity assays. The 39-mer ssDNA “C6.18” [NT] was purchased from IDT and used as a substrate. Quantification of ATP hydrolysis was evaluated using the ADP-Glo assay kit (Promega, Madison, WI). An enzyme titration time-course was performed to determine the optimal assay conditions. […] To evaluate the inhibitory effects of the compounds, 11-point 3-fold serial dilutions were prepared in DMSO. 50 nL of each concentration in duplicate was preincubated for 30 minutes in a 384-well microplate (Greiner #784075) with 5 μL of 0.5 nM WRN in assay buffer. The reaction was initiated by adding 5 μL of 200 nM C6.18 DNA with 20 μM ATP and was allowed to proceed for 30 minutes at room temperature. The reaction was stopped with 10 μL ADP-Glo reagent for 1 hour to remove unreacted ATP. Lastly, 20 μL ATP detection reagent was added and incubated for 1 hour to generate the luminescence signal. Control wells included “high controls” with no inhibition (DMSO, no compound) and “low controls” with maximum inhibition (no WRN). Luminescence was recorded on a PHERAstar (BMG Labtech, Ortenberg, Germany). Data was fit using the “Smart Fit” method within the Genedata Screener Software (Basel, Switzerland) to obtain IC50 values using four-parameter fits. Reported IC50s are the geometric means of at least two independent trials.
In general terms: In ADP-Glo the light output rises with the ADP produced.

In the next experiment the test system is HCT116 cells. The experiment is described as follows: HCT116 (MSI) 7 day viability, CellTiter Glo. It counts as cell-based. The following applies: Homo sapiens, HCT-116, 168 h, 7 days, read-out: HCT116 (MSI) Viability 7 Day Abs AC50. The essentials: (§1)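 Luminescence read-out (CellTiter Glo) after 7-day compound exposure at 37 °C. Seeding density 50 cells/well for HCT116, 500 cells/well for HT29. Background from cell-free medium wells; IC50 by four-parameter logistic fit, geometric mean of at least 2 replicates.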
For orientation: Cellular ATP, detected with luciferase, serves as a proxy for viable cell number.

The test system of another experiment is HT29 cells. The experiment is described as follows: HT29 (MSS) 7 day viability, CellTiter Glo. In kind it is cell-based. The settings on record: Homo sapiens, HT-29, 168 h, 7 days, read-out: HT29 (MSS) Viability 7 Day CTGAbs AC50. The essentials: as §1

Sequence of Full length WRN protein (aa 2-1432) (Q14191 2-1432): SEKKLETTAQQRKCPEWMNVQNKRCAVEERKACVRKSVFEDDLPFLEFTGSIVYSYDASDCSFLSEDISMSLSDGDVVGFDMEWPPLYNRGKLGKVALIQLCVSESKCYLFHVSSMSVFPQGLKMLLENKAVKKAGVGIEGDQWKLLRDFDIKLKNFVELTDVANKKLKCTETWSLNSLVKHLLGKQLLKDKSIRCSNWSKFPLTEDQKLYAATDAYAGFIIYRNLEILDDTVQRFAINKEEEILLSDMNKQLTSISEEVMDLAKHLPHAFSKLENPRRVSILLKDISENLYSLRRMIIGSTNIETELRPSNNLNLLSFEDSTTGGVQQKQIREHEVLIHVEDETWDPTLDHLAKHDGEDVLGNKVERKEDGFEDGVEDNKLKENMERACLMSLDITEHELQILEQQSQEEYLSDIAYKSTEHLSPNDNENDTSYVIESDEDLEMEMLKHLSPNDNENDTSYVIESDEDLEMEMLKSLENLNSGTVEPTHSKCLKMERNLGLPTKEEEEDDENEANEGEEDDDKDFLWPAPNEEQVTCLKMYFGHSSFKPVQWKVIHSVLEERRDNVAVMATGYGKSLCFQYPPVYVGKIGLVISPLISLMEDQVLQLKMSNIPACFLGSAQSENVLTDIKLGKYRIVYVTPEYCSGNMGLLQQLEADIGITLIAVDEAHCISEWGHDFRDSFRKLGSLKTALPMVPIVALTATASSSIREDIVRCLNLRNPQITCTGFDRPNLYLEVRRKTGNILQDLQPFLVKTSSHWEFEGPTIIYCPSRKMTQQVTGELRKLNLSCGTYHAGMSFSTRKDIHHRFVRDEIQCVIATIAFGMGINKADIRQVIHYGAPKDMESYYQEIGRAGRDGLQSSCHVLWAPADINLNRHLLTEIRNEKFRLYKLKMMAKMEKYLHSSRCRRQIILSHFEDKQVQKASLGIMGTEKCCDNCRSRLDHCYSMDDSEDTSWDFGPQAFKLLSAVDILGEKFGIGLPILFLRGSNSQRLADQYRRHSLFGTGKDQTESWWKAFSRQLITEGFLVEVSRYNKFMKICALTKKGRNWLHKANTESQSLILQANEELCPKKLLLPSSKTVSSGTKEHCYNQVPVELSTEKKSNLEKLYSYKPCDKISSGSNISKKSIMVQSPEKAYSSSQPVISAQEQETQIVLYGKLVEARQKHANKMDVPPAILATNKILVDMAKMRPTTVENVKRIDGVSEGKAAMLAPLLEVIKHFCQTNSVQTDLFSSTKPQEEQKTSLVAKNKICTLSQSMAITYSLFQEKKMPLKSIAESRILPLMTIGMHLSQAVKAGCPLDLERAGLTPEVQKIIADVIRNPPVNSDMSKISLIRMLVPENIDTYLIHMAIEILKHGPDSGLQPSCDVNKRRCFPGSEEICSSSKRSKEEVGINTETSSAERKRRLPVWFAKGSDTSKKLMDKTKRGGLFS

Consider `C=CC(=O)N1CCc2nn(-c3ccc(C4CC4)cc3)c3c2C(C1)N(C(=O)c1cnc([N+](=O)[O-])c(O)c1)CC3` (stereo not drawn) [Compound 120, 1-(2-(4-cyclopropylphenyl)-5-(5-hydroxy-6-nitronicotinoyl)-2,3,4,5,5a,6,8,9-octahydro-7H-1,2,5,7-tetraazabenzo[cd]azulen-7-yl)prop-2-en-1-one], for which the half-maximal activity concentration (AC50) in experiment [1] is 0.0015 to 0.005 µM; with HCT116 cells it was over 1000 nM; in the experiment on HT29 cells, over 3000 nM.
The matching figures for `C=CC(=O)N1Cc2nn(-c3ccc(C(C)C)cc3C)c3c2C(C1)N(C(=O)c1ccc(Br)c(O)c1)CC3` (stereo not drawn) [Compound 35, 1-(6-(4-bromo-3-hydroxybenzoyl)-1-(4-isopropyl-2-methylphenyl)-1,5,5a,6,7,8-hexahydropyrazolo[3,4,5-de][1,7]naphthyridin-4(3H)-yl)prop-2-en-1-one]: 0.005 to 0.015 µM, 100 to 250 nM and over 3000 nM.
The matching figures for `CN(C)CC=CC(=O)N1CCOc2nn(-c3ccc(C4CCC4)cc3)c3c2C(C1)N(C(=O)c1ccc(Br)c2[nH]cnc12)CC3` (stereo not drawn) [Compound 51, 1-(5-(7-bromo-1H-benzo[d]imidazole-4-carbonyl)-2-(4-cyclobutylphenyl)-2,3,4,5,5a,6,8,9-octahydro-7H-10-oxa-1,2,5,7-tetraazacycloocta[cd]inden-7-yl)-4-(dimethylamino)but-2-en-1-one]: 0.015 to 0.055 µM, over 1000 nM and over 3000 nM.
With `C=CC(=O)N1CCOc2nn(-c3ccc(C(C)C)cc3)c3c2C(C1)N(C(=O)c1ccc(Br)c(O)c1)CC3` (stereo not drawn) [Compound 48, 1-(5-(4-bromo-3-hydroxybenzoyl)-2-(4-isopropylphenyl)-2,3,4,5,5a,6,8,9-octahydro-7H-10-oxa-1,2,5,7-tetraazacycloocta[cd]inden-7-yl)prop-2-en-1-one], the AC50 in experiment [1] is 0.0015 to 0.005 µM; with HCT116 cells it was 100 to 250 nM; in the experiment on HT29 cells it was over 3000 nM.
`C=CC(=O)N1CCc2nn(-c3ccc(C4CC4)cc3)c3c2C(C1)N(C(=O)c1ccc(C2(C#N)CC2)nc1)CC3` (stereo not drawn) [Compound 119, 1-(5-(7-acryloyl-2-(4-cyclopropylphenyl)-3,4,5,5a,6,7,8,9-octahydro-2H-1,2,5,7-tetraazabenzo[cd]azulene-5-carbonyl)pyridin-2-yl)cyclopropane-1-carbonitrile]: the figures for the AC50 (in experiment [1]; in the experiment on HCT116 cells; in the experiment with HT29 cells) were 0.015 to 0.055 µM, over 1000 nM and over 3000 nM, respectively.
The matching figures for `C=CC(=O)N1CCc2nn(-c3ccc(C4CC4)cc3)c3c2C(C1)N(C(=O)c1ccc(C#N)nc1)CC3` (stereo not drawn) [Compound 123, 5-(7-acryloyl-2-(4-cyclopropylphenyl)-3,4,5,5a,6,7,8,9-octahydro-2H-1,2,5,7-tetraazabenzo[cd]azulene-5-carbonyl)picolinonitrile]: 0.015 to 0.055 µM, 250 to 500 nM and over 3000 nM.
Turning to `C=CC(=O)N1CCc2nn(-c3ccc(C(C)C)cc3)c3c2C(C1)N(C(=O)c1ccc2c(cnn2C(F)(F)F)c1)CC3` (stereo not drawn) [Compound 11, 1-(2-(4-isopropylphenyl)-5-(1-(trifluoromethyl)-1H-indazole-5-carbonyl)-2,3,4,5,5a,6,8,9-octahydro-7H-1,2,5,7-tetraazabenzo[cd]azulen-7-yl)prop-2-en-1-one], the concentration at half-maximal activity (AC50) in experiment [1] was over 0.055 µM; with HCT116 cells it was over 1000 nM; in the experiment with HT29 cells, over 3000 nM.
The matching figures for `C=CC(=O)N1CCn2nc(-c3ccc(C(C)C)cc3)c3c2C(C1)N(C(=O)c1ccc(Br)c(O)c1)CC3` (stereo not drawn) [Compound 37, 1-(5-(4-bromo-3-hydroxybenzoyl)-2-(4-isopropylphenyl)-4,5,5a,6,8,9-hexahydro-1,5,7,9a-tetraazabenzo[cd]azulen-7(3H)-yl)prop-2-en-1-one]: 0.015 to 0.055 µM, over 1000 nM and over 3000 nM.
